Experimental data as given in patent US8859541B2, “6-alkynylpyridines” (Boehringer Ingelheim International GmbH, priority 2012, dated 2014).
pIC50: −log10 of the molar value.

molecular target: T1, XIAP BIR3 (Homo sapiens, UniProt P98170); test: XIAP BIR3 binding assay (DELFIA), displacement of SMAC peptide; details: GST-fusion BIR3 domain (aa 241 to 356) 10 nM, SMAC peptide 10 nM; activity of the (S)-isomers
T1 construct: covering amino acids 241 to 356; XIAP BIR3; made in house; host or cells: E. coli
How it was run: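 Each BIR3 domain (10 nM) incubated with biotinylated N-terminal SMAC peptide (10 nM) and compound for 1 h at room temp in Tris/NaCl buffer with BSA, DTT and Triton X-100. Captured on streptavidin plates; bound BIR3 detected by Eu-labelled anti-GST time-resolved fluorescence, giving IC50 values.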

T1 sequence (P98170 241-356): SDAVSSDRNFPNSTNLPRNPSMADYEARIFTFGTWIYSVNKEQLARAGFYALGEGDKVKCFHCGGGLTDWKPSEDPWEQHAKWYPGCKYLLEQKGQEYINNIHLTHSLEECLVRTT

pIC50	SMILES
6.11	CNC(C)C(=O)Nc1ccc(-c2cnc(SC)nc2)c(C#Cc2ccc3ccccc3c2)n1 (stereo not drawn) [Example 158, 2-(methylamino)-N-[5-(2-methylsulfanylpyrimidin-5-yl)-6-(2-naphthalen-2-ylethynyl)-pyridin-2-yl]propanamide]
6.12	CNC(C)C(=O)Nc1ccc(-c2cncnc2C(C)C)c(C#Cc2ccc3ccccc3c2)n1 (stereo not drawn) [Example 159, 2-(methylamino)-N-[6-(2-naphthalen-2-ylethynyl)-5-(4-propan-2-ylpyrimidin-5-yl)-pyridin-2-yl]propanamide]
6.32	CNC(C)C(=O)Nc1ccc(-c2cnccc2C#N)c(C#Cc2cc(F)cc(F)c2)n1 (stereo not drawn) [Example 160, N-[5-(4-cyanopyridin-3-yl)-6-[2-(3,5-difluorophenyl)ethynyl]-pyridin-2-yl]-2-(methylamino)-propanamide]
5.74	CNC(C)C(=O)Nc1ccc(-c2c(F)ccc3ccc(C)nc23)c(C#Cc2ccccc2)n1 (stereo not drawn) [Example 162, N-[5-(7-fluoro-2-methylquinolin-8-yl)-6-(2-phenylethynyl)pyridin-2-yl]-2-(methylamino)propan-amide]
5.35	CNC(C)C(=O)Nc1ccc(-c2c(OC)ccc3ccccc23)c(C#Cc2ccccc2)n1 (stereo not drawn) [Example 163, N-[5-(2-methoxynaphthalen-1-yl)-6-(2-phenylethynyl)pyridin-2-yl]-2-(methylamino)propanamide]
6.47	CNC(C)C(=O)Nc1ccc(-c2c(C)nn(C)c2C)c(C#Cc2ccc3cnccc3c2)n1 (stereo not drawn) [Example 164, N-[6-(2-isoquinolin-6-ylethynyl)-5-(1,3,5-trimethylpyrazol-4-yl)-pyridin-2-yl]-2-(methylamino)-propanamide]
6.05	CC(N)C(=O)Nc1ccc(C2CCCC2)c(C#Cc2ccccc2)n1 (stereo not drawn) [Example 166, 2-amino-N-[5-cyclopentyl-6-(2-phenylethynyl)pyridin-2-yl]-propan-amide]
6.06	CCCc1ccc(NC(=O)C(C)N)nc1C#Cc1ccccc1 (stereo not drawn) [Example 167, 2-amino-N-[6-(2-phenylethynyl)-5-propylpyridin-2-yl]propanamide]
5.94	CCNC(CC)C(=O)Nc1ccc(-c2cncnc2)c(C#Cc2ccc3ncccc3c2)n1 (stereo not drawn) [Example 169, 2-(ethylamino)-N-[5-pyrimidin-5-yl-6-(2-quinolin-6-ylethynyl)pyridin-2-yl]butanamide]
5.86	CCNC(CC)C(=O)Nc1ccc(-c2cncnc2)c(C#Cc2ccc3ncccc3c2)n1 (stereo not drawn) [Example 170, 2-(ethylamino)-N-[5-pyrimidin-5-yl-6-(2-quinolin-6-ylethynyl)pyridin-2-yl]-butanamide]
5.99	Cc1noc(C)c1-c1ccc(NC(=O)C(C)NC(C)C)nc1C#Cc1ccccc1 (stereo not drawn) [Example 171, N-[5-(3,5-dimethyl-1,2-oxazol-4-yl)-6-(2-phenylethynyl)pyridin-2-yl]-2-(propan-2-ylamino)propanamide]
6.30	CCCNC(C)C(=O)Nc1ccc(-c2c(C)noc2C)c(C#Cc2ccccc2)n1 (stereo not drawn) [Example 172, N-[5-(3,5-dimethyl-1,2-oxazol-4-yl)-6-(2-phenylethynyl)-pyridin-2-yl]-2-(propylamino)-propanamide]
6.49	CNC(C)C(=O)Nc1ccc(-c2c(C)ncnc2C)c(C#Cc2ccc3ccccc3c2)n1 (stereo not drawn) [Example 173, N-[5-(4,6-dimethylpyrimidin-5-yl)-6-(2-naphthalen-2-ylethynyl)pyridin-2-yl]-2-(methylamino)propanamide]
6.67	CNC(C)C(=O)Nc1ccc(-c2ccc3c(c2)C(=O)CCC3)c(C#Cc2ccccc2)n1 (stereo not drawn) [Example 178, 2-(methylamino)-N-[5-(8-oxo-6,7-dihydro-5H-naphthalen-2-yl)-6-(2-phenylethynyl)pyridin-2-yl]-propanamide]
5.42	CNC(C)C(=O)Nc1ccc(-c2nccc3ccccc23)c(C#Cc2ccccc2)n1 (stereo not drawn) [Example 179, N-[5-isoquinolin-1-yl-6-(2-phenylethynyl)pyridin-2-yl]-2-(methylamino)propanamide]
